According to patent publication US10596172B2 (Celgene CAR LLC, priority 2008, dated 2020):
pIC50: −log10 of the molar value. Read-outs that look alike come from different tables or passages of the source.

Legend:
BTK = BTK (Homo sapiens (Human), UniProt Q06187); assay: Washout experiment with Ramos cells; type: cell-based; conditions: 100 nM compound 1 hour, then washout
Method: Ramos cells were serum starved for one hour in RPMI media +1% glutamine at 37° C. After starvation, Ramos cells were treated with 100 nM compound diluted in serum free RPMI media for 1 hour. After compound treatment, the media was removed and cells were washed with compound-free media. Subsequently, Ramos cells were washed every 2 hours and resuspended in fresh compound-free media. Cells were collected at specified timepoints, treated with 1 ug anti-human IgM (Southern Biotech cat #2022-01) for 10 minutes on ice to induce BCR signaling and then washed in PBS. Ramos cells were then lysed in Cell Extraction Buffer (Invitrogen FNN0011) supplemented with Roche complete protease inhibitor tablets (Roche 11697498001) and phosphatase inhibitors (Roche 04 906 837 001) and 18 ug total protein lysate was loaded in each lane. Inhibition of BTK kinase activity was assayed by measuring its substrate (PLCγ2) phosphorylation by western blot with phospho-specific antibodies from Cell Signaling Technologies cat #3871. The results of this experiment with compounds I-2, I-4 and I-7 are depicted in FIGS. 1, 2 and 3.

TEC kinase = TEC kinase (Homo sapiens (Human), UniProt P42680); assay: Mass spectrometry for TEC kinase (tryptic digest); type: binding; conditions: 3 hrs at 10x excess
Chain of TEC kinase (P42680 whole entry): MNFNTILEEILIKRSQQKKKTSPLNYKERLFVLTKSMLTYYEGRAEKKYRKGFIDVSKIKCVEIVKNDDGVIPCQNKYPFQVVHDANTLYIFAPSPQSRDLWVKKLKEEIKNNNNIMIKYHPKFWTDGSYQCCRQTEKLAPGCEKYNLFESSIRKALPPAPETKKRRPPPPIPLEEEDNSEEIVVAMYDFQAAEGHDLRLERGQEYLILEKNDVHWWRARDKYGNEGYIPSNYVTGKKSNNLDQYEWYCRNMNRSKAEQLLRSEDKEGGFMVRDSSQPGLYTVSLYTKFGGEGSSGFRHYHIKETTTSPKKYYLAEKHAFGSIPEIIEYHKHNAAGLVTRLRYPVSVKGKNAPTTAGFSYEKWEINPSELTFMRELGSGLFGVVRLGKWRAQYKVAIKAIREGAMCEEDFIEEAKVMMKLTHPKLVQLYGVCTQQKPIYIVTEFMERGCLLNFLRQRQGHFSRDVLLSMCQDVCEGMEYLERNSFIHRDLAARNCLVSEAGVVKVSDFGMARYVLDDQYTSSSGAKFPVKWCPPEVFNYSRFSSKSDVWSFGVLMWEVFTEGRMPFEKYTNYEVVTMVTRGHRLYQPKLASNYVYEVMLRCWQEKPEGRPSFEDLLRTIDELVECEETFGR
Method: (§1) TEC kinase (45 pmols; Invitrogen) was incubated with (I-2) (450 pmols) for 3 hrs at 10× excess prior to tryptic digestion. Iodoacetamide was used as the alkylating agent after compound incubation. […] For tryptic digests a 5 ul aliquot (7.5 pmols) was diluted with 15 ul of 0.1% TFA prior to micro C18 Zip Tipping directly onto the MALDI target using alpha cyano-4-hydroxy cinnamic acid as the matrix (5 mg/ml in 0.1% TFA:Acetonitrile 50:50).
As depicted in FIG. 6, the expected peptide ([…]) to be modified was immediately evident after reaction with I-2 (MI mass of 359.17 Da) at MH+ of 1294.72. The peptide was also quite evident in the control sample as modified by Iodacetamide at MH+ of 992.56. […] There was no evidence of other modified peptides.
For tryptic digests the instrument was set in Reflectron mode with a pulsed extraction setting of 2200. Calibration was done using the Laser Biolabs Pep Mix standard ([…], 1296.69, 1672.92, 2093.09, 2465.20). For CID/PSD analysis the peptide was selected using cursors to set ion gate timing and fragmentation occurred at a laser power about 20% higher and He was used as the collision gas for CID. Calibration for fragments was done using the P14R fragmentation calibration for the Curved field Reflectron.
as §1, with “(I-4)” for “(I-2)”
As depicted in FIG. 7, the expected peptide ([…]) to be modified was immediately evident at MH+ of 1355.72. This is the mass to be expected when compound I-4, with an adduct mass of 420.21, is added to the peptide mass of 935.51. The peptide was also quite evident in the control sample as modified by Iodacetamide at MH^+ of 992.56. […] There was no evidence of other modified peptides. […]

[1] = tested on: B cell lymphoma cell lines; assay: B cell lymphoma proliferation assay; type: cell-based
JAK3 = JAK3 (Homo sapiens (Human), UniProt P52333); assay: Omnia assay for potency assessment against the active form of JAK3; type: biochemical; conditions: read-out: JAK3 Inhibition
Chain of JAK3 (P52333 whole entry): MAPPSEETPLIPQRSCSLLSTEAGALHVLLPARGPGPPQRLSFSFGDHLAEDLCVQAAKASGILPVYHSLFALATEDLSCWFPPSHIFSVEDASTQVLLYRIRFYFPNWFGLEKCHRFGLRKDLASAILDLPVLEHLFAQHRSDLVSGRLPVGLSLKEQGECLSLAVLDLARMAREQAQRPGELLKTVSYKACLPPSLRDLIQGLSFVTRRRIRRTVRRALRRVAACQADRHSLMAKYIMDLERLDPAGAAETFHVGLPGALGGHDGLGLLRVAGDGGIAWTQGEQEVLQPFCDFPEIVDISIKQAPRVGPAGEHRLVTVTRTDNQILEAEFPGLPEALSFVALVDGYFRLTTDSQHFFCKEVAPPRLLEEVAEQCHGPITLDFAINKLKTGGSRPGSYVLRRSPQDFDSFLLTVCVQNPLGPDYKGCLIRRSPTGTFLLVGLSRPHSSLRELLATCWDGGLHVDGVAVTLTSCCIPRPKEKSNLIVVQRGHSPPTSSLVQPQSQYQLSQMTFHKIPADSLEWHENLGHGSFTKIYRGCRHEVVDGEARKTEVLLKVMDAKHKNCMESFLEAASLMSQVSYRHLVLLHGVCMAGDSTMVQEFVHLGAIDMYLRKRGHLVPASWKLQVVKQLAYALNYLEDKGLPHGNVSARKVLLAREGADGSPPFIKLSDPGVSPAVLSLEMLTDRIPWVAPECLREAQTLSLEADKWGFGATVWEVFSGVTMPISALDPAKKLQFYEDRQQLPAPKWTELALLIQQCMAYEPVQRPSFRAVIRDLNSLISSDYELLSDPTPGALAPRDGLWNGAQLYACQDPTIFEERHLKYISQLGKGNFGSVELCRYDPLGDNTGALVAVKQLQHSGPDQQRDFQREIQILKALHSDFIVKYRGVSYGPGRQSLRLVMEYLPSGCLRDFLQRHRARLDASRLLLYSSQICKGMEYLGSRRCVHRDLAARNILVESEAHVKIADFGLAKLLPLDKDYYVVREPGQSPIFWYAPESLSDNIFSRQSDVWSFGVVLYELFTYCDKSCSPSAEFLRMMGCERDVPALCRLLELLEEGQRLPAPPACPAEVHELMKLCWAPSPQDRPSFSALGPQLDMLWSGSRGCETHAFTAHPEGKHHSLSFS

[2] = DHL4 B cell lymphoma cell line, read-out: EC50 (μM) DHL4
[3] = Homo sapiens, DOHH-2, DOHH2 B cell lymphoma cell line, read-out: EC50 (μM) DOHH2
[4] = Homo sapiens, WSUDLCL2, WSU-DLCL2 B cell lymphoma cell line, read-out: EC50 (μM) WSU-DLCL2

Chain of BTK (Q06187 whole entry): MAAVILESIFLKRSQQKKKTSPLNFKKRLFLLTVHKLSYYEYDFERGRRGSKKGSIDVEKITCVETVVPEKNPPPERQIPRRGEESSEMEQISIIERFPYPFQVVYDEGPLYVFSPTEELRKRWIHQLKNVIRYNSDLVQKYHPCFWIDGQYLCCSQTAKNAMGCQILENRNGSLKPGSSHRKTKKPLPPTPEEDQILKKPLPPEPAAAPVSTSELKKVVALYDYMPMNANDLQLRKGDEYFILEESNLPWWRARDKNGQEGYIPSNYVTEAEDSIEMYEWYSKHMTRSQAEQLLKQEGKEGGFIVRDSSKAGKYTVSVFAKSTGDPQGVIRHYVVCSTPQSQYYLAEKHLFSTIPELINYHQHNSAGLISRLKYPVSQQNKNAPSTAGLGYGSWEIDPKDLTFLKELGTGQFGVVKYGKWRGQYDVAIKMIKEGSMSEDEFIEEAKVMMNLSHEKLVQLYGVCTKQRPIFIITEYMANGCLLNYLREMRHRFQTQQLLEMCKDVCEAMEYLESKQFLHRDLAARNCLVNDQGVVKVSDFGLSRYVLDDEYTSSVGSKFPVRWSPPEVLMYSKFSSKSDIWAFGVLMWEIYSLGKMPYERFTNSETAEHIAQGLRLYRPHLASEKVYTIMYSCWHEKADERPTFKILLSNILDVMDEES

SMILES | BTK Inhibition Type (BTK) | covalent modification of TEC kinase peptide GCLLNFLR (Cys449) by mass spectrometry (TEC kinase) | EC50 [1, 2] [µM] | EC50 [1, 3] [µM] | EC50 [1, 4] [µM] | pIC50 (JAK3)
C=CC(=O)Nc1cccc(Nc2nc(Nc3ccccc3)ncc2C)c1 [Compound I-7, N-(3-(5-methyl-2-(phenylamino)pyrimidin-4-ylamino)phenyl)acrylamide] | irreversible | reaction was complete | 1 to 10 | 1 to 10 | 1 to 10 | > 8.00
Cc1cccc(Nc2nc(Nc3cccc(NC(=O)/C=C/CN(C)C)c3)ncc2F)c1 [Compound I-4, (E)-4-(dimethylamino)-N-(3-(5-fluoro-4-(m-tolylamino)pyrimidin-2-ylamino)phenyl)but-2-enamide] | irreversible | reaction was complete | 0.1 to 1 | 0.1 to 1 | 0.1 to 1 | > 8.00
